The record followed here is US20230159538A1, “PYRROLIDINE-PYRAZOLES AS PYRUVATE KINASE ACTIVATORS” (Global Blood Therapeutics, Inc., priority 2020, published 2023).

For orientation: AC50 means the midpoint of the concentration-response curve, whichever way the signal moves. A lower AC50 goes with greater potency.

In this test the target is T1, Human pyruvate kinase R (PKR) (Homo sapiens, UniProt P30613).
T1 construct: Human pyruvate kinase R (PKR), residues 14-574; 6x-His (N, cleaved yes); 8x-Arg (N, cleaved yes); SUMO (N, cleaved yes); host or cells: E. coli
The test can be described thus: Biochemical assay for activation of pyruvate kinase R (Kinase-Glo luminescence, ATP generation). The following applies: for AC50: 0.1 nM PKR, 2 mM FBP, 0.3 mM ADP, 0.1 mM PEP; for PKR % activation: maximal activation level relative to the activation level achieved by AG-348 @ 10 μM. The protocol: Proteins were translated as fusions with 6×-His, 8×-Arg, and SUMO at the N-terminus. […] All proteins were cloned, expressed in E. coli, and purified using similar protocols. Cells were grown at 30° C. in Luria-Bertani broth supplemented with 0.4% glucose to OD600=0.8 and induced with 0.4 mM IPTG at 16° C. for 18 hours. Cells were harvested by centrifugation, resuspended in 50 mM potassium phosphate pH 8.0, 500 mM NaCl, 25 mM imidazole pH 8.0, and 3 mM β-mercaptoethanol. Cells were lysed using a LM20 microfluidizer from Microfluidics (Westwood, Mass.). The crude lysate was immediately supplemented with 0.2 mM phenylmethylsulfonyl fluoride (PMSF) and centrifuged at 20,000 g for 20 minutes. The soluble fraction was subsequently incubated with 2 mL Ni-NTA (GE Healthcare) per 1,000 ODs for 1 hour at 4° C. Following incubation with the Ni-NTA resin, lysate was removed by pelleting resin at 2,500 g for 3 minutes and washed 3 times with 9 bed volumes of 50 mM potassium phosphate pH 8.0, 500 mM NaCl, 25 mM imidazole, and 3 mM β-mercaptoethanol. Following the batch wash Ni-NTA resin was loaded onto a gravity column and His-tagged protein was eluted with 6 bed volumes of 10 mM Tris/HCl pH 8.0, 200 mM NaCl, 500 mM imidazole, and 3 mM β-mercaptoethanol. Eluted protein was dialyzed overnight against 10 mM Tris/HCl pH 8.0, 200 mM NaCl, and 1 mM DTT and the 6×-His-8×-Arg-SUMO-tag was cleaved using a 20:1 molar ratio of protein:3C protease. The protein was purified by anion exchange chromatography on a HiTrapQ or MonoQ 10/100 GL column (GE Healthcare) via a linear NaCl gradient and twice by size exclusion chromatography using a Superdex S200 26/60 column (GE Healthcare) run in 10 mM Tris/HCl pH 8.0, 200 mM NaCl, 10 mM MgCl2, 1 mM DTT. Proteins were concentrated to ˜12 mg/mL for crystallization and flash frozen for storage.
Biochemical Assay for Activation of Pyruvate Kinase R
Activation of pyruvate kinase R (PKR) and pyruvate kinase M2 (PKM2) were measured using a luminescence based measurement of ATP generation and the Kinase-Glo luminescent kinase reagent kit.

T1 sequence (P30613 14-574): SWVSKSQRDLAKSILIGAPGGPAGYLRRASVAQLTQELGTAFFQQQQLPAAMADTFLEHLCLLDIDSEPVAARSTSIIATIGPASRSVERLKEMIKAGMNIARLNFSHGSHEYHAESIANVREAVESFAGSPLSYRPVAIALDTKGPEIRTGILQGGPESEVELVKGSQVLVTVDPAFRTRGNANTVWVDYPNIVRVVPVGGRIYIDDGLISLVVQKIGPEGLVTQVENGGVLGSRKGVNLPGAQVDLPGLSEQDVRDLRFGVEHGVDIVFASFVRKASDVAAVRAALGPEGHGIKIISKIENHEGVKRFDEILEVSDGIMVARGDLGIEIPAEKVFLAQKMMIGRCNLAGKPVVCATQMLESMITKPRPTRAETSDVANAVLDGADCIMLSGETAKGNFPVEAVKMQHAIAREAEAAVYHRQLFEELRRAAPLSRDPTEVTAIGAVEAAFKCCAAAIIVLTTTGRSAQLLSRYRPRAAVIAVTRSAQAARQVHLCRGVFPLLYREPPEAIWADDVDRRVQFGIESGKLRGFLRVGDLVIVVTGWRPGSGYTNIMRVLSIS

As to `O=C(C(CO)c1ccncc1)N1Cc2cn(S(=O)(=O)c3ccc4ncsc4c3)nc2C1` (racemic) [Compound 27, 1-[2-(1,3-benzothiazole-6-sulfonyl)-2H,4H,5H,6H-pyrrolo[3,4-c]pyrazol-5-yl]-3-hydroxy-2-(pyridin-4-yl)propan-1-one], the concentration at half-maximal activity (AC50) came to 0.039 µM. Same read-out and setting: the figure for `COC(C(=O)N1Cc2cn(S(=O)(=O)c3ccc(OC(F)F)cc3)nc2C1)c1ccccc1F` (racemic) [Compound 98, 1-{2-[4-(difluoromethoxy)benzenesulfonyl]-2H,4H,5H,6H-pyrrolo[3,4-c]pyrazol-5-yl}-2-(2-fluorophenyl)-2-methoxyethan-1-one] is 0.21 µM. Molecule `O=C([C@H](CO)c1ccccc1)N1Cc2cn(S(=O)(=O)c3ccc4ncsc4c3)nc2C1` (single isomer, unassigned) [Compound 2, (2S)-1-[2-(1,3-benzothiazole-6-sulfonyl)-2H,4H,5H,6H-pyrrolo[3,4-c]pyrazol-5-yl]-3-hydroxy-2-phenylpropan-1-one or (2R)-1-[2-(1,3-benzothiazole-6-sulfonyl)-2H,4H,5H,6H-pyrrolo[3,4-c]pyrazol-5-yl]-3-hydroxy-2-phenylpropan-1-one] gave an AC50 of 0.556 µM and a PKR % activation of 127%. Regarding `O=C([C@@H](CO)c1ccccc1)N1Cc2cn(S(=O)(=O)c3ccc(OC(F)F)cc3)nc2C1` (single isomer, unassigned) [Compound 8, (2R)-1-{2-[4-(difluoromethoxy)benzenesulfonyl]-2H,4H,5H,6H-pyrrolo[3,4-c]pyrazol-5-yl}-3-hydroxy-2-phenylpropan-1-one, or (2S)-1-{2-[4-(difluoromethoxy)benzenesulfonyl]-2H,4H,5H,6H-pyrrolo[3,4-c]pyrazol-5-yl}-3-hydroxy-2-phenylpropan-1-one], the AC50 was 1.98 µM and the PKR % activation is reported as 152%.

Molecule `O=C(N1Cc2cn(S(=O)(=O)c3ccc4ncsc4c3)nc2C1)[C@]1(c2ccccn2)CCOC1` (single isomer, unassigned) [Compound 19, 6-({5-[(3S)-3-(pyridin-2-yl)oxolane-3-carbonyl]-2H,4H,5H,6H-pyrrolo[3,4-c]pyrazol-2-yl}sulfonyl)-1,3-benzothiazole or 6-({5-[(3R)-3-(pyridin-2-yl)oxolane-3-carbonyl]-2H,4H,5H,6H-pyrrolo[3,4-c]pyrazol-2-yl}sulfonyl)-1,3-benzothiazole] registered an AC50 of 0.699 µM and a PKR % activation of 59%. The molecule `Cc1ccc(C2(C(=O)N3Cc4cn(S(=O)(=O)c5ccc6ncsc6c5)nc4C3)CCOC2)cn1` (single isomer, unassigned) [Compound 31, 6-({5-[(3S)-3-(6-methylpyridin-3-yl)oxolane-3-carbonyl]-2H,4H,5H,6H-pyrrolo[3,4-c]pyrazol-2-yl}sulfonyl)-1,3-benzothiazole or 6-({5-[(3R)-3-(6-methylpyridin-3-yl)oxolane-3-carbonyl]-2H,4H,5H,6H-pyrrolo[3,4-c]pyrazol-2-yl}sulfonyl)-1,3-benzothiazole] showed a concentration at half-maximal activity (AC50) of 0.173 µM.

`Cc1cccc([C@@]2(C(=O)N3Cc4cn(S(=O)(=O)c5ccc6ncsc6c5)nc4C3)CCOC2)n1` (single isomer, unassigned) [Compound 36, 6-({5-[(3S)-3-(6-methylpyridin-2-yl)oxolane-3-carbonyl]-2H,4H,5H,6H-pyrrolo[3,4-c]pyrazol-2-yl}sulfonyl)-1,3-benzothiazole or 6-({5-[(3R)-3-(6-methylpyridin-2-yl)oxolane-3-carbonyl]-2H,4H,5H,6H-pyrrolo[3,4-c]pyrazol-2-yl}sulfonyl)-1,3-benzothiazole] registered a half-maximal activity concentration (AC50) of 0.591 µM and a PKR % activation of 38%.

In turn, `CC(CO)(C(=O)N1Cc2cn(S(=O)(=O)c3ccc4ncsc4c3)nc2C1)c1ccccn1` (single isomer, unassigned) [Compound 43, (2R)-1-[2-(1,3-benzothiazole-6-sulfonyl)-2H,4H,5H,6H-pyrrolo[3,4-c]pyrazol-5-yl]-3-hydroxy-2-methyl-2-(pyridin-2-yl)propan-1-one or (2S)-1-[2-(1,3-benzothiazole-6-sulfonyl)-2H,4H,5H,6H-pyrrolo[3,4-c]pyrazol-5-yl]-3-hydroxy-2-methyl-2-(pyridin-2-yl)propan-1-one] displayed an AC50 of 0.075 µM. For `C[C@@](CO)(C(=O)N1Cc2cn(S(=O)(=O)c3ccc4ncsc4c3)nc2C1)c1ccccn1` (single isomer, unassigned) [Compound 44, (2R)-1-[2-(1,3-benzothiazole-6-sulfonyl)-2H,4H,5H,6H-pyrrolo[3,4-c]pyrazol-5-yl]-3-hydroxy-2-methyl-2-(pyridin-2-yl)propan-1-one or (2S)-1-[2-(1,3-benzothiazole-6-sulfonyl)-2H,4H,5H,6H-pyrrolo[3,4-c]pyrazol-5-yl]-3-hydroxy-2-methyl-2-(pyridin-2-yl)propan-1-one], the concentration at half-maximal activity (AC50) was 0.55 µM and the PKR % activation turned out to be 86%. `O=C(N1Cc2cn(S(=O)(=O)c3ccc4c(c3)NCCO4)nc2C1)[C@]1(c2ccccn2)CCOC1` (single isomer, unassigned) [Compound 45, 6-({5-[(3S)-3-(pyridin-2-yl)oxolane-3-carbonyl]-2H,4H,5H,6H-pyrrolo[3,4-c]pyrazol-2-yl}sulfonyl)-3,4-dihydro-2H-1,4-benzoxazine or 6-({5-[(3R)-3-(pyridin-2-yl)oxolane-3-carbonyl]-2H,4H,5H,6H-pyrrolo[3,4-c]pyrazol-2-yl}sulfonyl)-3,4-dihydro-2H-1,4-benzoxazine]: the concentration at half-maximal activity (AC50) came to 0.015 µM and the PKR % activation stood at 94%. `O=C(N1Cc2cn(S(=O)(=O)c3ccc4c(c3)NCCO4)nc2C1)[C@]1(c2ccccn2)CCOC1` (single isomer, unassigned) [Compound 46, 6-({5-[(3S)-3-(pyridin-2-yl)oxolane-3-carbonyl]-2H,4H,5H,6H-pyrrolo[3,4-c]pyrazol-2-yl}sulfonyl)-3,4-dihydro-2H-1,4-benzoxazine or 6-({5-[(3R)-3-(pyridin-2-yl)oxolane-3-carbonyl]-2H,4H,5H,6H-pyrrolo[3,4-c]pyrazol-2-yl}sulfonyl)-3,4-dihydro-2H-1,4-benzoxazine] gave an AC50 of 0.129 µM and a PKR % activation of 45%.

`Cc1ncccc1[C@@H](N)C(=O)N1Cc2cn(S(=O)(=O)c3ccc4ncsc4c3)nc2C1` (single isomer, unassigned) [Compound 47, (2R)-2-amino-1-[2-(1,3-benzothiazole-6-sulfonyl)-2H,4H,5H,6H-pyrrolo[3,4-c]pyrazol-5-yl]-2-(2-methylpyridin-3-yl)ethan-1-one or (2S)-2-amino-1-[2-(1,3-benzothiazole-6-sulfonyl)-2H,4H,5H,6H-pyrrolo[3,4-c]pyrazol-5-yl]-2-(2-methylpyridin-3-yl)ethan-1-one] registered an AC50 of 0.064 µM and a PKR % activation of 40%.

With `C[C@@](CO)(C(=O)N1Cc2cn(S(=O)(=O)c3ccc4c(c3)OCCO4)nc2C1)c1ccccn1` (single isomer, unassigned) [Compound 48, (2R)-1-[2-(2,3-dihydro-1,4-benzodioxine-6-sulfonyl)-2H,4H,5H,6H-pyrrolo[3,4-c]pyrazol-5-yl]-3-hydroxy-2-methyl-2-(pyridin-2-yl)propan-1-one or (2S)-1-[2-(2,3-dihydro-1,4-benzodioxine-6-sulfonyl)-2H,4H,5H,6H-pyrrolo[3,4-c]pyrazol-5-yl]-3-hydroxy-2-methyl-2-(pyridin-2-yl)propan-1-one], the AC50 was 0.223 µM and the PKR % activation turned out to be 46%.

As to `O=C(N1Cc2cn(S(=O)(=O)c3ccc4ncsc4c3)nc2C1)C1(c2ccccc2)CCCN1` (single isomer, unassigned) [Compound 54, 6-({5-[(2S)-2-phenylpyrrolidine-2-carbonyl]-2H,4H,5H,6H-pyrrolo[3,4-c]pyrazol-2-yl}sulfonyl)-1,3-benzothiazole or 6-({2-[(2R)-2-phenylpyrrolidine-2-carbonyl]-2H,4H,5H,6H-pyrrolo[3,4-c]pyrazol-2-yl}sulfonyl)-1,3-benzothiazole], the concentration at half-maximal activity (AC50) was found to be 4 µM.
